Measurements published in patent publication US12077503B2, “Substituted cyclic amides and their use as herbicides” (FMC CORPORATION, priority 2015, dated 2024).

Columns and labels:
Format in all cases: in vivo
[1] = system: barnyardgrass (Echinochloa crus-galli); assay: Test G Pre-Emergence Protocol; conditions: Echinochloa crus-galli, pre-emergence, 312 h, evaluated after 13 days; for pest or weed control at 15.625 g/ha: 15.625 g ai/ha, read-out: Barnyard grass damage rating (100=total damage to plant; 0=no damage to plant); for pest or weed control at 62.5 g/ha: 62.5 g ai/ha, 100=total damage to plant, 0=no damage to plant, read-out: plant damage rating, Barnyardgrass; for pest or weed control at 250 g/ha: 250 g ai/ha, read-out: Barnyardgrass damage rating (100=total damage to plant; 0=no damage to plant)
Method in brief: (§1)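 Glasshouse pre-emergence test: soil-sown seeds, sprayed after 1 d at 15.625, 62.5 or 250 g/ha. Conditions 24/16° C day/night, 14 h light, 65% humidity, watering twice daily. Rating 13 d post-spray (100 = total damage).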

corn (Zea mays) [2] = assay: Test G Pre-Emergence Protocol; conditions: Zea mays, pre-emergence, 312 h, evaluated after 13 days; for plant injury at 15.625 g/ha: 15.625 g ai/ha; for plant injury at 15.625 g/ha / plant injury at 250 g/ha: read-out: Corn damage rating (100=total damage to plant; 0=no damage to plant); for plant injury at 62.5 g/ha: 62.5 g ai/ha, 100=total damage to plant, 0=no damage to plant, read-out: plant damage rating, Corn; for plant injury at 250 g/ha: 250 g ai/ha
Method in brief: as §1

[3] = system: giant foxtail (Setaria faberi); assay: Test G Pre-Emergence Protocol; conditions: Setaria faberi, pre-emergence, 312 h, evaluated after 13 days; for pest or weed control at 15.625 g/ha: 15.625 g ai/ha; for pest or weed control at 15.625 g/ha / pest or weed control at 250 g/ha: read-out: Foxtail, Giant damage rating (100=total damage to plant; 0=no damage to plant); for pest or weed control at 62.5 g/ha: 62.5 g ai/ha, 100=total damage to plant, 0=no damage to plant, read-out: plant damage rating, Foxtail, Giant; for pest or weed control at 250 g/ha: 250 g ai/ha
Method in brief: as §1

[4] = system: ivy-leaved morning glory (Ipomoea hederacea); assay: Test G Pre-Emergence Protocol; conditions: Ipomoea, pre-emergence, 312 h, evaluated after 13 days; for pest or weed control at 15.625 g/ha: 15.625 g ai/ha, read-out: Morning-glory, Ivy-leaved damage rating (100=total damage to plant; 0=no damage to plant); for pest or weed control at 62.5 g/ha: 62.5 g ai/ha, 100=total damage to plant, 0=no damage to plant, read-out: plant damage rating, Morningglory, Ivy-leaved; for pest or weed control at 250 g/ha: 250 g ai/ha, read-out: Morningglory, Ivy-leaved damage rating (100=total damage to plant; 0=no damage to plant)
Method in brief: as §1

[5] = system: redroot pigweed (Amaranthus retroflexus); assay: Test G Pre-Emergence Protocol; conditions: Amaranthus retroflexus, pre-emergence, 312 h, evaluated after 13 days; for pest or weed control at 15.625 g/ha: 15.625 g ai/ha; for pest or weed control at 15.625 g/ha / pest or weed control at 250 g/ha: read-out: Pigweed, Redroot damage rating (100=total damage to plant; 0=no damage to plant); for pest or weed control at 62.5 g/ha: 62.5 g ai/ha, 100=total damage to plant, 0=no damage to plant, read-out: plant damage rating, Pigweed, Redroot; for pest or weed control at 250 g/ha: 250 g ai/ha
Method in brief: as §1

[6] = system: velvetleaf (Abutilon theophrasti); assay: Test G Pre-Emergence Protocol; conditions: Abutilon theophrasti, pre-emergence, 312 h, evaluated after 13 days; for pest or weed control at 15.625 g/ha: 15.625 g ai/ha; for pest or weed control at 15.625 g/ha / pest or weed control at 250 g/ha: read-out: Velvetleaf damage rating (100=total damage to plant; 0=no damage to plant); for pest or weed control at 62.5 g/ha: 62.5 g ai/ha, 100=total damage to plant, 0=no damage to plant, read-out: plant damage rating, Velvetleaf; for pest or weed control at 250 g/ha: 250 g ai/ha
Method in brief: as §1

[7] = system: barnyardgrass (Echinochloa crus-galli); assay: Test G Post-Emergence Protocol; conditions: Echinochloa crus-galli, post-emergence, 312 h; for pest or weed control at 15.625 g/ha: 15.625 g ai/ha, evaluated after 13 days (100=total damage to plant; 0=no damage to plant), read-out: Barnyardgrass damage rating; for pest or weed control at 62.5 g/ha: 62.5 g ai/ha, read-out: Barnyardgrass damage rating (100=total damage to plant; 0=no damage to plant); for pest or weed control at 62.5 g/ha / pest or weed control at 250 g/ha: evaluated after 13 days; for pest or weed control at 250 g/ha: 250 g ai/ha, read-out: damage to plant, Barnyardgrass (100=total damage to plant; 0=no damage to plant)
Method in brief: (§2)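 Foliar application was made 8 days after sowing, using an aqueous spray of the active in acetone/water (50:50) with 0.5% Tween 20, at doses of 15.625, 62.5 or 250 g/ha. Injury was assessed 13 days later, where 100 meant the plant was fully damaged.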

corn (Zea mays) [8] = assay: Test G Post-Emergence Protocol; conditions: Zea mays, post-emergence, 312 h; for plant injury at 15.625 g/ha: 15.625 g ai/ha, evaluated after 13 days (100=total damage to plant; 0=no damage to plant), read-out: Corn damage rating; for plant injury at 62.5 g/ha: 62.5 g ai/ha, read-out: Corn damage rating (100=total damage to plant; 0=no damage to plant); for plant injury at 62.5 g/ha / plant injury at 250 g/ha: evaluated after 13 days; for plant injury at 250 g/ha: 250 g ai/ha, read-out: damage to plant, Corn (100=total damage to plant; 0=no damage to plant)
Method in brief: as §2

[9] = system: giant foxtail (Setaria faberi); assay: Test G Post-Emergence Protocol; conditions: Setaria faberi, post-emergence, 312 h; for pest or weed control at 15.625 g/ha: 15.625 g ai/ha, evaluated after 13 days (100=total damage to plant; 0=no damage to plant), read-out: Foxtail, Giant damage rating; for pest or weed control at 62.5 g/ha: 62.5 g ai/ha, read-out: Foxtail, Giant damage rating (100=total damage to plant; 0=no damage to plant); for pest or weed control at 62.5 g/ha / pest or weed control at 250 g/ha: evaluated after 13 days; for pest or weed control at 250 g/ha: 250 g ai/ha, read-out: damage to plant, Foxtail, Giant (100=total damage to plant; 0=no damage to plant)
Method in brief: as §2

[10] = system: ivy-leaved morning glory (Ipomoea hederacea); assay: Test G Post-Emergence Protocol; conditions: Ipomoea, post-emergence, 312 h; for pest or weed control at 15.625 g/ha: 15.625 g ai/ha, evaluated after 13 days (100=total damage to plant; 0=no damage to plant), read-out: Morningglory, Ivy-leaved damage rating; for pest or weed control at 62.5 g/ha: 62.5 g ai/ha, read-out: Morningglory, Ivy-leaved damage rating (100=total damage to plant; 0=no damage to plant); for pest or weed control at 62.5 g/ha / pest or weed control at 250 g/ha: evaluated after 13 days; for pest or weed control at 250 g/ha: 250 g ai/ha, read-out: damage to plant, Morningglory, Ivy-leaved (100=total damage to plant; 0=no damage to plant)
Method in brief: as §2

[11] = system: redroot pigweed (Amaranthus retroflexus); assay: Test G Post-Emergence Protocol; conditions: Amaranthus retroflexus, post-emergence, 312 h; for pest or weed control at 15.625 g/ha: 15.625 g ai/ha, evaluated after 13 days (100=total damage to plant; 0=no damage to plant), read-out: Pigweed, Redroot damage rating; for pest or weed control at 62.5 g/ha: 62.5 g ai/ha, read-out: Pigweed, Redroot damage rating (100=total damage to plant; 0=no damage to plant); for pest or weed control at 62.5 g/ha / pest or weed control at 250 g/ha: evaluated after 13 days; for pest or weed control at 250 g/ha: 250 g ai/ha, read-out: damage to plant, Pigweed, Redroot (100=total damage to plant; 0=no damage to plant)
Method in brief: as §2

[12] = system: velvetleaf (Abutilon theophrasti); assay: Test G Post-Emergence Protocol; conditions: Abutilon theophrasti, post-emergence, 312 h; for pest or weed control at 15.625 g/ha: 15.625 g ai/ha, evaluated after 13 days (100=total damage to plant; 0=no damage to plant), read-out: Velvetleaf damage rating; for pest or weed control at 62.5 g/ha: 62.5 g ai/ha, read-out: Velvetleaf damage rating (100=total damage to plant; 0=no damage to plant); for pest or weed control at 62.5 g/ha / pest or weed control at 250 g/ha: evaluated after 13 days; for pest or weed control at 250 g/ha: 250 g ai/ha, read-out: damage to plant, Velvetleaf (100=total damage to plant; 0=no damage to plant)
Method in brief: as §2

Structure (SMILES): CN1C[C@@H](c2ccc(C(F)(F)F)cc2)[C@H](C(=O)Nc2cc(Cl)n[nH]2)C1=O (racemic) [Compound 1632]
- pest or weed control at 15.625 g/ha [1]: 0%
- pest or weed control at 62.5 g/ha [1]: 0%
- pest or weed control at 250 g/ha [1]: 0%
- plant injury at 15.625 g/ha (corn (Zea mays) [2]): 0%
- plant injury at 62.5 g/ha (corn (Zea mays) [2]): 0%
- plant injury at 250 g/ha (corn (Zea mays) [2]): 0%
- pest or weed control at 15.625 g/ha [3]: 0%
- pest or weed control at 62.5 g/ha [3]: 0%
- pest or weed control at 250 g/ha [3]: 0%
- pest or weed control at 15.625 g/ha [4]: 0%
- pest or weed control at 62.5 g/ha [4]: 0%
- pest or weed control at 250 g/ha [4]: 0%
- pest or weed control at 15.625 g/ha [5]: 0%
- pest or weed control at 62.5 g/ha [5]: 0%
- pest or weed control at 250 g/ha [5]: 0%
- pest or weed control at 15.625 g/ha [6]: 0%
- pest or weed control at 62.5 g/ha [6]: 0%
- pest or weed control at 250 g/ha [6]: 0%
- pest or weed control at 15.625 g/ha [7]: 0%
- pest or weed control at 62.5 g/ha [7]: 0%
- pest or weed control at 250 g/ha [7]: 10%
- plant injury at 15.625 g/ha (corn (Zea mays) [8]): 0%
- plant injury at 62.5 g/ha (corn (Zea mays) [8]): 0%
- plant injury at 250 g/ha (corn (Zea mays) [8]): 0%
- pest or weed control at 15.625 g/ha [9]: 0%
- pest or weed control at 62.5 g/ha [9]: 0%
- pest or weed control at 250 g/ha [9]: 20%
- pest or weed control at 15.625 g/ha [10]: 0%
- pest or weed control at 62.5 g/ha [10]: 0%
- pest or weed control at 250 g/ha [10]: 0%
- pest or weed control at 15.625 g/ha [11]: 0%
- pest or weed control at 62.5 g/ha [11]: 0%
- pest or weed control at 250 g/ha [11]: 20%
- pest or weed control at 15.625 g/ha [12]: 0%
- pest or weed control at 62.5 g/ha [12]: 0%
- pest or weed control at 250 g/ha [12]: 0%

Structure (SMILES): CN1C[C@@H](c2ccc(C(F)(F)F)cc2)[C@H](C(=O)Nc2ccnc(C(F)(F)F)c2)C1=O (racemic) [Compound 1638]
- pest or weed control at 15.625 g/ha [1]: 0%
- pest or weed control at 62.5 g/ha [1]: 0%
- pest or weed control at 250 g/ha [1]: 0%
- plant injury at 15.625 g/ha (corn (Zea mays) [2]): 0%
- plant injury at 62.5 g/ha (corn (Zea mays) [2]): 0%
- plant injury at 250 g/ha (corn (Zea mays) [2]): 0%
- pest or weed control at 15.625 g/ha [3]: 0%
- pest or weed control at 62.5 g/ha [3]: 0%
- pest or weed control at 250 g/ha [3]: 0%
- pest or weed control at 15.625 g/ha [4]: 0%
- pest or weed control at 62.5 g/ha [4]: 0%
- pest or weed control at 250 g/ha [4]: 0%
- pest or weed control at 15.625 g/ha [5]: 0%
- pest or weed control at 62.5 g/ha [5]: 0%
- pest or weed control at 250 g/ha [5]: 0%
- pest or weed control at 15.625 g/ha [6]: 0%
- pest or weed control at 62.5 g/ha [6]: 0%
- pest or weed control at 250 g/ha [6]: 0%
- pest or weed control at 15.625 g/ha [7]: 0%
- pest or weed control at 62.5 g/ha [7]: 0%
- pest or weed control at 250 g/ha [7]: 0%
- plant injury at 15.625 g/ha (corn (Zea mays) [8]): 0%
- plant injury at 62.5 g/ha (corn (Zea mays) [8]): 0%
- plant injury at 250 g/ha (corn (Zea mays) [8]): 0%
- pest or weed control at 15.625 g/ha [9]: 0%
- pest or weed control at 62.5 g/ha [9]: 0%
- pest or weed control at 250 g/ha [9]: 0%
- pest or weed control at 15.625 g/ha [10]: 0%
- pest or weed control at 62.5 g/ha [10]: 0%
- pest or weed control at 250 g/ha [10]: 0%
- pest or weed control at 15.625 g/ha [11]: 0%
- pest or weed control at 62.5 g/ha [11]: 0%
- pest or weed control at 250 g/ha [11]: 0%
- pest or weed control at 15.625 g/ha [12]: 0%
- pest or weed control at 62.5 g/ha [12]: 0%
- pest or weed control at 250 g/ha [12]: 0%
